Experimental data taken from article PMC5622171 (Nature Communications, 2017).
“Also recorded” adds a separate entry of the source.

Experiments:
hCAR = biological target: T1, hCAR (Homo sapiens, UniProt Q14994); assay: hCAR transactivation assay, inverse agonistic mode; assay type: cell-based
T1 construct: expressed in transfected cells; host or cells: HepG2
Experimental: The hCAR transactivation assays were performed as described previously[48]. […] The relative luciferase activity was determined by normalizing the firefly luciferase signal to the Renilla luciferase signal and was used to represent the ‘relative activity of CAR’. The final DMSO concentration was 0.4% in all assays.

CYP3A4 promoter = assay: hPXR-CYP3A4-luc reporter mice (hydrodynamic injection), bioluminescence imaging; assay type: in vivo, mouse; settings: transient transgenic mice, SPA70 150 mg kg−1, RIF 10 mg kg−1
Experimental: For the hydrodynamic injections, treatment, and in vivo imaging, in vivo delivery of the CYP3A4-luc reporter gene and the hPXR gene into mouse liver was performed using the hydrodynamic injection method described previously, [53], [54]. Briefly, by a rapid (5–10 s) tail-vein injection, each mouse received 25 μg of linearized CYP3A4-luc plasmid DNA with linearized hPXR plasmid DNA in sterile saline in a volume equal to 10% of its body weight. Imaging for luciferase activity was performed 2–8 weeks after somatic gene transfer (the bioluminescence was stable in the mice during the 2–8 weeks period). Fifteen mice were given i.p. injections of VivoGlo luciferin (Promega) (150 mg kg^−1 of body weight), anesthetized with 2.5% isoflurane, and imaged 10 min later in a Xenogen IVIS 200 system (Xenogen) to obtain a basal image. […] The mice were imaged 10 h after the last treatment in each round. The Living Image 3.2 software (Xenogen) was used to analyze the total photon flux of uniform regions of interest drawn around the liver. The CYP3A4-luc reporter activity (expressed as induction rate) was determined by using the total photon flux from the same mouse before and after treatment: induction rate = total photon flux (after treatment)/total photon flux (before treatment).

LS180 cells (parental) = assay: CellTiter-Glo cytotoxicity assay; settings: 10 µM SPA70
Experimental: (§1) For the LS180, SNU-C4 and LS1034 cytotoxicity assays, cells were seeded in a 96-well plate (Corning) at 4000 cells per well. […] Cell viability was assessed using the CellTiter-Glo assay.

CYP3A4 [1] = assay: CYP3A4 protein levels in primary human hepatocytes (western blot); assay type: cell-based
Experimental: Cells were rinsed once with cold PBS then lysed in RIPA lysis buffer (Thermo Fisher Scientific) containing protease inhibitor (Roche). Mouse liver samples were homogenized in 500 μl of cold RIPA lysis buffer in a Bullet Blender Blue homogenizer (Next Advance, Averill Park, NY). Then, 25 μg of total protein lysates were loaded onto NuPAGE 4%–12% Bis-Tris gels (Invitrogen) with NuPAGE MES SDS running buffer (Invitrogen). The proteins were transferred from the gel to a nitrocellulose membrane by using the iBlot gel-transfer system (Invitrogen). The membrane was then blocked for 1 h with Odyssey Blocking Buffer (LI-COR Biosciences, Lincoln, NE) and probed with mouse monoclonal antibodies against CYP3A4 (K03; stock concentration: 2.5 mg ml^−1, diluted 1:5000)[51], MDR1 (D-11; Cat. No. sc-55510, Santa Cruz Biotechnology, Santa Cruz, CA; stock concentration: 0.2 mg ml^−1, diluted 1:1500), hPXR (H-11; Cat. No. sc-48340, Santa Cruz Biotechnology; stock concentration: 0.2 mg ml^−1, diluted 1:400), mouse Cyp3a (Cat. No. MAB10041, Millipore, Temecula, CA; Lot No. 1957980, diluted 1:1000), or β-actin (Cat. No. A5441, Sigma; Lot No. 043M4840V, diluted 1:5000). […] The relative intensity of each protein band was then determined by normalizing the intensity of each protein band to that of actin. […]

CYP3A4 [2] = assay: Paclitaxel metabolism in primary human hepatocytes (LC/MS/MS); assay type: in vitro ADME; settings: 10 µM SPA70, 1 µM PTX, 24 or 48 h
Experimental: Calibration and quality-control samples were prepared.

C57BL/6 mice = assay: Animal acute toxicity study; settings: oral 500 mg kg−1, days 13 and 15
Experimental: In the animal acute toxicity studies, C57BL/6 mice were randomly apportioned among six groups, with five mice per group. […] After dosing, mice were monitored daily for 15 days for morbidity and mortality. Signs of morbidity included ruffled fur, hunching, tremors, lethargy, hyperactivity and diarrhea, in addition to a reduction in weight gain. The body weight of each mouse was recorded before and after treatment. At day 15, all mice were killed and a terminal blood sample was collected for examination of clinical chemistries (e.g., renal, liver and hematopoietic function). Histopathological examination of the major organs was performed with hematoxylin and eosin staining.

LXRβ = LXRβ (Homo sapiens, UniProt P55055); assay: GeneBLAzer NR-UAS-bla HEK 293 T assay; assay type: cell-based; settings: antagonistic mode; only at concentrations higher than 5 µM
Chain of LXRβ (P55055 222-460 limits assumed): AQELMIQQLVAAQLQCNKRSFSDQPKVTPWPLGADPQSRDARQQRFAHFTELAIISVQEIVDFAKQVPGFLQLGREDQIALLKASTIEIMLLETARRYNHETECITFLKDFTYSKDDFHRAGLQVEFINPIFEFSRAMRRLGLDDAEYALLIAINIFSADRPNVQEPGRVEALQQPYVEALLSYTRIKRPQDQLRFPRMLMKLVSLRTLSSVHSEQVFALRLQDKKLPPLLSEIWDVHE
Experimental: The assays were performed in accordance with the manufacturer’s instructions, with minor modifications as reported previously[48]–[50]. Briefly, positive control (as described for each assay), DMSO, and dilutions of test chemicals either alone (for agonistic assays) or in combination with an approximately EC80 concentration of a specific agonist (for antagonistic assays) were incubated with an optimized number of cells for each assay in wells of black 384-well tissue culture-treated clear-bottom plates with 30 µl of the respective assay medium in a 37 °C cell-culture incubator. A group of wells containing assay medium and DMSO, but no cells, served as a background control. The final DMSO concentration was 0.5% for all wells.

Cyp3a11 = assay: Loss of righting reflex (LORR) assay in hPXR-tg mice; assay type: in vivo, mouse; settings: hPXR humanized mice, SPA70 200 mg kg−1 i.p., RIF 10 mg kg−1
Experimental: The LORR assay method has been described previously, by using 2,2,2-tribromoethanol, a substrate of mouse Cyp3a11 which is induced by hPXR. Mice were first injected intraperitoneally with 250 mg kg^−1 of 2,2,2-tribromoethanol, then placed on their backs under a heat lamp as soon as they lost their righting reflex. The LORR duration was defined as the time period from the start of LORR to when mice could right themselves twice within 1 min, after being placed on their backs. For each mouse, a baseline LORR duration was first established before oral administration of vehicle or compounds. […] A paired Student’s t-test was used to compare the LORR duration at baseline and after treatment. A P-value of less than 0.05 was considered to indicate a significant difference between the compared groups.

LS1034 cells = assay: CellTiter-Glo cytotoxicity assay; settings: 10 µM SPA70
Experimental: as §1

T1 sequence (Q14994 whole entry): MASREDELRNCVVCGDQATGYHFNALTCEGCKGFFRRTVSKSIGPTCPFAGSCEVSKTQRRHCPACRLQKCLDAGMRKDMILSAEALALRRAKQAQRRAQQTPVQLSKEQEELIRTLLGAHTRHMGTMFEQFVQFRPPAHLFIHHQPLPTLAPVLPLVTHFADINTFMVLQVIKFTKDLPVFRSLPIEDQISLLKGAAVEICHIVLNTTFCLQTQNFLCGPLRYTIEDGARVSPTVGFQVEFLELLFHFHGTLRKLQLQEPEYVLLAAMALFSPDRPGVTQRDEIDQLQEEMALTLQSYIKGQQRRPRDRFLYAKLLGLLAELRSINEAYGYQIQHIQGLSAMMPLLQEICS

COc1ccc(OC)c(-n2nnc(S(=O)(=O)c3ccc(C(C)(C)C)cc3)c2C)c1 [SPA70]
Effect on basal activity of CAR (hCAR): very weak CAR inverse agonist; also recorded: very weakly inhibited the basal activity
Effect on rifampicin-induced activation of the CYP3A4 promoter (CYP3A4 promoter): effectively blocked the rifampicin-induced activation of the CYP3A4 promoter
Toxicity of SPA70 alone in LS180 cells (LS180 cells (parental)): marginally toxic
Effect on CYP3A4 induction by SR12813 and T090137 (CYP3A4 [1]; 2.5 μM SPA70, 0.1 μM SR12813 or 0.03 μM T090137, 48 h): able to block the CYP3A4-inducing effect
Effect on CYP3A4 induction by rifampicin (CYP3A4 [1]; 2.5 μM SPA70, 1 μM rifampicin, 48 h): substantially blocked
Effect on metabolism of paclitaxel to 3′-p-hydroxypaclitaxel or 6α-hydroxypaclitaxel (CYP3A4 [2]): substantially blocked
Mouse body weight (C57BL/6 mice): increase in mouse body weight
Effect on agonistic activity of T0901317 on LXRβ (LXRβ): weakly promoted the agonistic effect of T0901317 on LXRβ; also recorded: marginally increased the agonistic activity of T0901317 on LXRβ
Effect on rifampicin-induced metabolism of 2,2,2-tribromoethanol by Cyp3a11 (LORR) (Cyp3a11): effectively blocked
Sensitization of LS1034 cells to paclitaxel and vincristine (LS1034 cells): sensitized LS1034 cells to both paclitaxel and vincristine
